Measured values reported in ChEMBL document CHEMBL1132322, “Paullones, a series of cyclin-dependent kinase inhibitors: synthesis, evaluation of CDK1/cyclin B inhibition, and in vitro antitumor activity” (J Med Chem, 1999).

Legend:
Assay in all cases: cells
Tumor Cell line [1] = settings: Homo sapiens, read-out: Log GI50 (converted)
HCT-116 [2] = type: functional; settings: Homo sapiens
Description: The logarithmic molar concentration inhibiting 50% net cell growth was measured on HCT116 (M) colon cancer cell lines.

Tumor Cell line [3] = type: functional; settings: Homo sapiens
Tumor Cell line [4] = settings: Homo sapiens, read-out: Log GI50 (converted); remark: listed apart in the source
HCT-116 [5] = type: functional; settings: Homo sapiens; remark: listed apart in the source
Description: The logarithmic molar concentration inhibiting 50% net cell growth was measured on HCT116 (M)colon cancer cell lines (in experiment 2)

HCT-116 [6] = type: functional; settings: Homo sapiens; remark: listed apart in the source
Description: The logarithmic molar concentration inhibiting 50% net cell growth was measured on HCT116 (M)colon cancer cell lines (in experiment 1)

Structure (SMILES)	GI50 (HCT-116 [2])	GI50 (Tumor Cell line [3])	further results
CN1C(=O)Cc2c([nH]c3ccc(Br)cc23)-c2ccccc21			GI50 (Tumor Cell line [1]): 31.6 µM
CCc1cccc2c3c([nH]c12)-c1ccccc1NC(=O)C3	79.4 µM	63.1 µM	
COC(=O)CN1C(=O)Cc2c([nH]c3ccc(Br)cc23)-c2ccccc21			GI50 (Tumor Cell line [4]): 31.6 µM
CSC1=Nc2ccccc2-c2[nH]c3ccc(Br)cc3c2C1			GI50 (HCT-116 [5]): 1.58 µM
CCN1C(=O)Cc2c([nH]c3ccc(Br)cc23)-c2ccccc21			GI50 (Tumor Cell line [1]): 25.1 µM; GI50 (HCT-116 [6]): > 100 µM; GI50 (HCT-116 [5]): 12.6 µM; GI50 (Tumor Cell line [4]): 12.6 µM
O=C1Cc2c([nH]c3ccc(Br)cc23)-c2cc(Br)ccc2N1		100 µM	
COc1cccc2c1NC(=O)Cc1c-2[nH]c2ccccc12		79.4 µM	
O=C1Cc2c([nH]c3ccc([N+](=O)[O-])cc23)-c2ccccc2N1 [ALSTERPAULLONE]			GI50 (Tumor Cell line [1]): 0.398 µM; GI50 (Tumor Cell line [4]): 0.316 µM
O=C1Cc2c([nH]c3ccc(Br)cc23)-c2ccccc2N1Cc1ccccc1 [PAULLONE]	20 µM		GI50 (Tumor Cell line [1]): 31.6 µM; GI50 (Tumor Cell line [4]): 100 µM
O=C1Cc2c([nH]c3ccccc23)-c2ccccc2N1 [PAULLONE]	15.8 µM	31.6 µM	

Further lines, with some results ahead:

GI50 (HCT-116 [2])	GI50 (Tumor Cell line [3])	Structure (SMILES)	further results
> 100 µM	100 µM	O=C1Cc2c([nH]c3ccccc23)-c2cc(Br)ccc2N1	
> 100 µM	100 µM	O=C1Cc2c([nH]c3c(Cl)cccc23)-c2ccccc2N1	
	50.1 µM	O=C1Cc2c([nH]c3c(Br)cccc23)-c2ccccc2N1	
	100 µM	O=C1Cc2c([nH]c3ccc(Br)cc23)-c2cc(O)c(O)cc2N1	
0.0251 µM	0.0631 µM	CN1CCC(c2c(O)cc(O)c3c(=O)cc(-c4ccccc4Cl)oc23)[C@@H](O)C1 (stereo not given in full)	
3.16 µM	79.4 µM	O=C1Cc2c([nH]c3ccc(Cl)cc23)-c2ccccc2N1	
6.31 µM	10 µM	ONC1=Nc2ccccc2-c2[nH]c3ccc(Br)cc3c2C1	
3.16 µM	15.8 µM	O=C1Cc2c([nH]c3cc(Br)ccc23)-c2ccccc2N1	
	39.8 µM	O=C1Cc2c([nH]c3ccc(Br)cc23)-c2ccccc2N1 [KENPAULLONE]	
20 µM	79.4 µM	N#Cc1ccc2[nH]c3c(c2c1)CC(=O)Nc1ccccc1-3 [PAULLONE 2]	
